Results from patent US6613795B2, “Enantiomerically pure basic arylcycloalkylhydroxycarboxylic esters, processes for their preparation and their use in medicaments” (priority 1996, dated 2003).

Legend:
M2 = test: functional experiments on guinea pig atrium (GPA); assay type: cell-based
Text: a pA2 and pEC50 values from functional experiments on rabbit vas deferens, guinea pig atrium and guinea pig ileum.

M2 receptors = molecular target: T1, M2 receptors (Rattus norvegicus, UniProt P10980); test: [3H]-NMS binding studies on M2 receptors from preparations of rat hearts
T1 construct: M2 receptors from preparations of rat hearts; from tissue; host or cells: rat heart preparations
T1 sequence (P10980 1-466): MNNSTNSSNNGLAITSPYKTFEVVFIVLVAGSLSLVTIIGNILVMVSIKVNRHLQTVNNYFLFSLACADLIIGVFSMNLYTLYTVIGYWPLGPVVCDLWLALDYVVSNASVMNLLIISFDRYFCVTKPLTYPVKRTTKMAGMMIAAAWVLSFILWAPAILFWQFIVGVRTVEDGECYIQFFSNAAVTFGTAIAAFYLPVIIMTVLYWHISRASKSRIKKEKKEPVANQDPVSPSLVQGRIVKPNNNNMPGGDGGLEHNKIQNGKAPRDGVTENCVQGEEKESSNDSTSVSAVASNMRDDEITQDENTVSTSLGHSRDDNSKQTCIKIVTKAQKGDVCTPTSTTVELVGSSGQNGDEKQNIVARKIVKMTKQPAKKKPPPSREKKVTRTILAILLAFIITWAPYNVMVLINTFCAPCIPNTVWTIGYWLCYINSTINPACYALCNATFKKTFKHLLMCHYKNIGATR
Text: c pKi values from [^3H]-NMS binding studies on M2 receptors from preparations of rat hearts

Row | SMILES | PA2 GPA (M2) (M2) | Ki (M2 receptors) [nM]
1 | C[N+]1(C)CC[C@H](OC(=O)[C@@](O)(c2ccccc2)C2CCCC2)C1 [Ia, (3S,2′S)-3-[(cyclopentylhydroxyphenylacetyl)oxy]-1,1-dimethylpyrrolidinium iodide] | 7.92 | 13.2
2 | C[N+]1(C)CC[C@H](OC(=O)[C@](O)(c2ccccc2)C2CCCC2)C1 [Ib, (3S,2′R)-3-[(cyclopentylhydroxyphenylacetyl)oxy]-1,1-dimethylpyrrolidinium iodide] |  | 0.182
3 | C[N+]1(C)CC[C@@H](OC(=O)[C@](O)(c2ccccc2)C2CCCC2)C1 [Ic, (3R,2′R)-3-[(cyclopentylhydroxyphenylacetyl)oxy]-1,1-dimethylpyrrolidinium iodide] | 9.43 | 
4 | C[N+]1(C)CC[C@@H](OC(=O)[C@@](O)(c2ccccc2)C2CCCC2)C1 [Id, (3R,2′S)-3-[(cyclopentylhydroxyphenylacetyl)oxy]-1,1-dimethylpyrrolidinium iodide] | 8.69 | 1
